Laboratory results from BindingDB's records for patent US10202375 (Redx Pharma PLC, 2019).
Several values for one entry are separate records, joined by “and”; a condition that tells them apart may be missing. Identical values can stand only once.

Biological target: Protein Wnt-3a (Mus musculus, UniProt P27467)
Test: Dual-Cell beta-Catenin Reporter Assay
Experimental: Mouse L cells transfected to constitutively produce biologically active murine Wnt-3a, referred to as L-Wnt cells, were purchased from the American Type Culture Collection, ATCC, Manassas, Va. (ATCC). These cells were cultured in DMEM supplemented with 10% FCS (Gibco/Invitrogen, Carlsbad, Calif.), 1% geneticin and 1% sodium pyruvate (Sigma) at 37° C. with 5% CO2. The cells were seeded into 96 well plates and treated with serial dilutions of compound diluted to 0.1% DMSO concentration. After 24 hours, cell supernatants were transferred to a 96 well plate previously seeded with Leading Light Wnt Reporter Cells, stably transfected with a luciferase gene under control of Wnt pathway response elements. After a further 24 hours, cells are treated with One-glo luciferase assay system (Promega, Madison, Wis.) and the luminescent signal read by envision.

Protein Wnt-3a, sequence (P27467 whole entry): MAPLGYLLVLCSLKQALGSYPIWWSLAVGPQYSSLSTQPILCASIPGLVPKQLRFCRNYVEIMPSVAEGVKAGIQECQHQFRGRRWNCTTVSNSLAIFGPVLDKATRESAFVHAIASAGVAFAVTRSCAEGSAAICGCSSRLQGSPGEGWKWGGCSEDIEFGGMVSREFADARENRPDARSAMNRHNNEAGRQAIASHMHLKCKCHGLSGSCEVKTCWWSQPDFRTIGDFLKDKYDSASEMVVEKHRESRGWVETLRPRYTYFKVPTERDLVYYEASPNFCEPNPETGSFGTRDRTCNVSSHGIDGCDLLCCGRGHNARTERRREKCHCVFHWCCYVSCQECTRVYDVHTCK

IC50	Compound
< 1 nM and 0.32 nM	Cc1cc(-c2nc(C)nc3c2ccn3CC(=O)Nc2ccc(-c3cnccn3)cn2)ccn1 [US10202375, Example 10]
3 nM	Cc1cc(-c2ccnc3c2cnn3CC(=O)Nc2ccc(-c3cnccn3)nc2)ccn1 [US10202375, Example 15]
3 nM	Cc1cc(-c2nccc3c2ncn3CC(=O)Nc2ccc(-c3cnccn3)cn2)ccn1 [US10202375, Example 20]
